Laboratory results reported in patent US4253997A, “Anti-ovulatory decapeptides” (American Home Products Corporation, priority 1979, dated 1981).

Tests used:
LH-RH = conditions: in vitro; cited from earlier work
ovulation [1] = conditions: administered at noon of proestrus; cited from earlier work
ovulation [2] = assay: Anti-ovulatory activity in proestrus rats (oviducts inspected for ova); format: in vivo, Sprague-Dawley CD rats; conditions: single administration at 1200 hours of proestrus
Procedure: The product of Example 2 was injected subcutaneously, in corn oil, as a single administration at 1200 hours on the day of proestrus (at least 2.5 hours prior to the commencement of the ovulatory LH surge). The rats were sacrificed on the morning of estrus (the day following proestrus) and the oviducts were inspected for the presence of ova under a dissecting microscope. The number of animals ovulating and the percent inhibition were as follows: […]

[3] = tested on: leuteinizing hormone (LH) release; conditions: LH-RH = 100 percent; cited from earlier work

[D-pGlu^1, D-Phe^2, D-Trp^3,6 ]-LH-RH
IDR50 (inhibitory molar dose ratio antagonist/LH-RH) (LH-RH): 3/1 | effective dose for in vivo inhibition of ovulation (ovulation [1]): 20 to 25 mg

D-(5-Oxoprolyl)-D-phenylalanyl-D-3-(1-naphthyl)-alanyl-L-seryl-L-tyrosyl-D- 3-(1-naphthyl)-alanyl-L-leucyl-L-arginyl-L-prolyl-glycine acetate salt [Example 2]
number of animals ovulating (ovulation [2]; 375 μg s.c. in corn oil): 5/6 | percent inhibition of ovulation (ovulation [2]; 375 μg s.c. in corn oil): 17% | number of animals ovulating (ovulation [2]; 500 μg s.c. in corn oil): 6/20 | percent inhibition of ovulation (ovulation [2]; 500 μg s.c. in corn oil): 70% | number of animals ovulating (ovulation [2]; 1000 μg s.c. in corn oil): 1/14 | percent inhibition of ovulation (ovulation [2]; 1000 μg s.c. in corn oil): 93%

Nal(1)^3 -LH-RH
potency as LH releasing agent relative to LH-RH [3]: 187.1%
